Experimental data as given in US9868737B2, “Pyridino[1,2-A]pyrimidone analogue used as MTOR/P13K inhibitor” (CISEN PHARMACEUTICAL CO., LTD., priority 2014, dated 2018).
Like-named read-outs stand apart in the source and are kept apart here.

Key:
MCF-7 cells = assay: In vitro test of cell activity (MCF-7 cells, insulin stimulation, ELISA-One fluorescence); assay type: cell-based; details: Homo sapiens, MCF7, MCF-7 cells; for inhibition at 1 µM: conc. 1 μM; for inhibition at 0.5 µM: conc. 0.5 μM; for inhibition at 0.25 µM: conc. 0.25 μM
How it was run: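 Fluorescence ELISA-One read-out on cell lysates, antibody-captured 1 h at room temperature. Before lysis, MCF-7 cells (2.5×10^4/well) were pretreated 2 h with compound in serum-free medium, single dose for screening or a dilution series for IC50, then stimulated 30 min with insulin ([…] final).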

PI3K (p110α) kinase = biological target: T1, PI3K (p110α) kinase (Homo sapiens, UniProt P42336); assay: PI3K (p110α) kinase assay (PI3K HTRF Assay); assay type: biochemical; details: in vitro enzyme activity assay, 10 μM PIP2, read-out: PI3K (p110α) enzyme activity_IC50
T1 construct: made in house
T1 sequence (P42336 whole entry): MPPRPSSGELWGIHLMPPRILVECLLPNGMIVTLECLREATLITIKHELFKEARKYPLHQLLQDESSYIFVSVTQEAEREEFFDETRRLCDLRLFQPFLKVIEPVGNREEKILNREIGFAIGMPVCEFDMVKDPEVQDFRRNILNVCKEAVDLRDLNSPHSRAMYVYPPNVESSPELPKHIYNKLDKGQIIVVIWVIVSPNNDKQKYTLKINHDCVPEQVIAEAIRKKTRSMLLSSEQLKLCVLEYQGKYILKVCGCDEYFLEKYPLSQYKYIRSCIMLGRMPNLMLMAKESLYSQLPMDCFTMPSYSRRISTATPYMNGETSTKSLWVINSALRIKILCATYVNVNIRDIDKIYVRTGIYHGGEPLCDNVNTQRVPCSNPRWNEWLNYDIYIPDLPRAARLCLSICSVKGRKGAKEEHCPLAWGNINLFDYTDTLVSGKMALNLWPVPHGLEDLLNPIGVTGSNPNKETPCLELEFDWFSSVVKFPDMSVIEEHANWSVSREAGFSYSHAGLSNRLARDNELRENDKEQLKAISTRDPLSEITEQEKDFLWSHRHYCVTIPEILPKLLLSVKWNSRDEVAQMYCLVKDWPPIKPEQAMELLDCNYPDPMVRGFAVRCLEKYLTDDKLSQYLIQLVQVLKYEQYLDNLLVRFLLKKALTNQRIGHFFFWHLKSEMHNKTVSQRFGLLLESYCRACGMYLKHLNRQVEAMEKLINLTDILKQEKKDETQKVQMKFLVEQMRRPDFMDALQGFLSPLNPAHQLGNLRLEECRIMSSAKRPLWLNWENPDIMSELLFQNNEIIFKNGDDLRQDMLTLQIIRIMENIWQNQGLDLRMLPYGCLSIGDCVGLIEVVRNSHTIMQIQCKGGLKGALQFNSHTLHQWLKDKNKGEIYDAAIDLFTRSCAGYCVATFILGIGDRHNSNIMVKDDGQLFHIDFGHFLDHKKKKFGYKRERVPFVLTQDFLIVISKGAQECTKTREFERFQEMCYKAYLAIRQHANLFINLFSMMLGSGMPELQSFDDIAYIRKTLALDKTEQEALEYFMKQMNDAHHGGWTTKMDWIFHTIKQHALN
Text: Conclusion: The compounds of the present invention have significant inhibitory effect on mTOR/PI3K. Example In Vitro Enzyme Activity Assay 1. The experimental procedures and methods of PI3K (p110α) kinase assay: 1) Experimental Objective
The objective was to evaluate the inhibitory effect of the subject samples on PI3K (p110α) kinase activity at molecular level.
(§1) PerkinElmer Envision 2104 Multilabel Reader.
PI 3-Kinase HTRF Assay (384 wells) was purchased from Upstate (Millipore) company: PI3K (p110α) kinase was made in our lab.
c) Experimental procedures
Each solution was prepared according to the instructions provided in the Kinase PI 3-Kinase HTRF Assay. The kinase reaction was carried out in white 384-well plates (Proxiplate-384 plus), 0.5 μl of DMSO (the concentration was consistent with the highest concentration of DMSO for the test compounds) was added to each of the two control wells with and without enzyme, and then 0.5 μl of a series of different concentrations of the test compounds was added to each well to be tested. The kinase reaction liquid (10 μM substrate PIP2, 0.5 ng PI3K (p110α)) was added to the control well containing enzyme and the test wells, while only working reaction liquid (10 μM substrate PIP2) was added to the control well without enzyme, and finally, 5 μM ATP working reaction liquid was added to activate the reaction. After the reaction was carried out at room temperature for 30 min, the stop solution was added to each well to terminate the kinase reaction. After the mixture was fully mixed, the detection liquid was added to each well and fully mixed. The plate was sealed with Parafilm and placed in the dark. After incubated overnight, the mixture was detected.
(§2) The IC50 value was calculated through the GraphPad software after plotting the relative inhibitory rate versus concentration.

mTOR kinase = biological target: T2, mTOR kinase (Homo sapiens, UniProt P42345); assay: mTOR kinase assay; assay type: biochemical; details: in vitro enzyme activity assay; ATP 100 μM; read-out: mTOR enzyme activity_IC50
T2 construct: made in house
Method: 2. Experimental Procedures and Methods of the mTOR Kinase Assay
The objective was to evaluate the inhibitory effect of the subject samples on the mTOR kinase activity at molecular level.
as §1
The mTOR Kinase Assay (384 wells) was purchased from PerkinElmer company; the mTOR kinase was made in our lab.
Each solution was prepared according to the instructions provided in the mTOR Kinase Assay. The kinase reaction was carried out in white 384-well plates (Proxiplate-384 plus). 2.5 μl of DMSO (the concentration was consistent with the highest concentration of DMSO for the test compounds) was added to each of the two control wells with and without enzyme, and then 2.5 μl of a series of different concentrations of the test compounds was added to each test well. ULight-4E-BP1 (Thr37/46) PeptideATP mix (the final concentration of ATP was 100 μM) and 5 μl of mTOR kinase were added to the control well containing enzyme as well as the test wells, and fully mixed. The plate was sealed with Parafilm and incubated for 2 h. Then 5 μl of stop solution was added and incubated for 5 minutes. Afterwards, 5 μl of Detection Mix (Eu-anti-phospho-4E-BP1 (Thr37/46) Antibody, the final concentration was 2 nM) was added and incubated for 1 h, and then the mixture was detected.
as §2

| Structure (SMILES) | inhibition at 1 µM (MCF-7 cells; read-out: % inhibition AKT) [%] | inhibition at 1 µM (MCF-7 cells; read-out: % inhibition p70s6k) [%] | IC50 (MCF-7 cells; read-out: IC50 p-AKT) [µM] | IC50 (MCF-7 cells; read-out: IC50 p-p70S6K) [µM] | IC50 (PI3K (p110α) kinase) [µM] | IC50 (mTOR kinase) [µM] | inhibition at 0.5 µM (MCF-7 cells; read-out: % inhibition AKT) [%] | inhibition at 0.5 µM (MCF-7 cells; read-out: % inhibition p70s6k) [%] | inhibition at 0.25 µM (MCF-7 cells; read-out: % inhibition AKT) [%] | inhibition at 0.25 µM (MCF-7 cells; read-out: % inhibition p70s6k) [%] |
| --- | --- | --- | --- | --- | --- | --- | --- | --- | --- | --- |
| COc1ncc(-c2ccc3nccc(=O)n3c2)cc1NS(=O)(=O)c1ccc(F)cc1F [compound 1, 2,4-difluoro-N-(2-methoxy-5-(4-oxo-4H-pyrido[1,2-a]pyrimidin-7-yl)pyridin-3-yl)benzsulfamide] | 97.5 | 42.4 | ≤ 0.05 | 0.05 to 0.1 | 0.001 to 0.01 | 0.01 to 0.05 | – | – | – | – |
| COc1ncc(-c2ccc3nccc(=O)n3c2)cc1NS(=O)(=O)c1ccc(F)cc1Cl [compound 25] | 95.1 | 94.1 | ≤ 0.05 | 0.05 to 0.1 | 0.001 to 0.01 | 0.01 to 0.05 | – | – | – | – |
| COc1ncc(-c2ccc3nccc(=O)n3c2)cc1NS(=O)(=O)c1ccc(F)cc1C [compound 26] | 95.6 | 93.7 | ≤ 0.05 | 0.05 to 0.1 | 0.001 to 0.01 | 0.01 to 0.05 | – | – | – | – |
| COc1ncc(-c2ccc3nccc(=O)n3c2)cc1NS(=O)(=O)c1ccc(C)cc1F [compound 28] | 96.2 | 93.9 | ≤ 0.05 | 0.05 to 0.1 | 0.001 to 0.01 | 0.01 to 0.05 | – | – | – | – |
| COc1ncc(-c2ccc3nccc(=O)n3c2)cc1NS(=O)(=O)c1ccccc1Cl [compound 30] | 95 | 93.4 | ≤ 0.05 | 0.05 to 0.1 | ≤ 0.001 | 0.01 to 0.05 | – | – | – | – |
| COc1ncc(-c2ccc3nccc(=O)n3c2)cc1NS(=O)(=O)c1ccc(Cl)s1 [compound 36] | – | – | ≤ 0.05 | ≤ 0.05 | 0.001 to 0.01 | 0.001 to 0.01 | 96.4 | 94.7 | – | – |
| COc1ncc(-c2ccc3ncc(F)c(=O)n3c2)cc1NS(=O)(=O)c1ccc(F)cc1F [compound 61, 2,4-difluoro-N-(5-(3-fluoro-4-oxo-4H-pyrido[1,2-a]pyrimidin-7-yl)-2-methoxypyridin-3-yl)benzsulfamide] | – | – | ≤ 0.05 | ≤ 0.05 | 0.01 to 0.05 | ≤ 0.001 | 78.9 | 89.7 | – | – |
| COc1ncc(-c2ccc3ncc(C)c(=O)n3c2)cc1NS(=O)(=O)c1ccc(F)cc1F [compound 81, 2,4-difluoro-N-(2-methoxy-5-(3-methyl-4-oxo-4H-pyrido[1,2-a]pyrimidin-7-yl)pyridin-3-yl)benzsulfamide] | – | – | ≤ 0.05 | 0.1 to 0.25 | 0.001 to 0.01 | 0.001 to 0.01 | 90.1 | 85.5 | – | – |
| COc1ncc(-c2ccc3ncc(C)c(=O)n3c2)cc1NS(=O)(=O)c1ccc(F)cc1Cl [compound 83] | – | – | ≤ 0.05 | 0.05 to 0.1 | ≤ 0.001 | 0.001 to 0.01 | 95 | 87.9 | – | – |
| COc1ncc(-c2ccc3ncc(OC)c(=O)n3c2)cc1NS(=O)(=O)c1ccc(F)cc1Cl [compound 104] | – | – | ≤ 0.05 | ≤ 0.05 | 0.001 to 0.01 | 0.01 to 0.05 | 95.2 | 91.7 | – | – |
| COc1ncc(-c2ccc3ncc(Cl)c(=O)n3c2)cc1NS(=O)(=O)c1ccc(F)cc1F [compound 132, N-(5-(3-chloro-4-oxo-4H-pyrido[1,2-a]pyrimidin-7-yl)-2-methoxypyridin-3-yl)-2,4-difluorobenzsulfamide] | – | – | ≤ 0.05 | 0.1 to 0.25 | 0.001 to 0.01 | 0.001 to 0.01 | 93 | 88.8 | – | – |
| COc1ncc(-c2ccc3ncc(Cl)c(=O)n3c2)cc1NS(=O)(=O)c1ccc(F)cc1Cl [compound 135] | – | – | ≤ 0.05 | 0.05 to 0.1 | ≤ 0.001 | 0.001 to 0.01 | 95.2 | 87.6 | – | – |
| COc1ncc(-c2ccc3ncc(Cl)c(=O)n3c2)cc1NS(=O)(=O)c1ccc(Cl)s1 [compound 144] | – | – | ≤ 0.05 | ≤ 0.05 | ≤ 0.001 | ≤ 0.001 | 95.8 | 89.4 | – | – |
| COc1ncc(-c2ccc3ncc(Cl)c(=O)n3c2)cc1NS(=O)(=O)c1c(Cl)cccc1Cl [compound 149] | – | – | ≤ 0.05 | ≤ 0.05 | 0.001 to 0.01 | 0.001 to 0.01 | – | – | 92 | 80.7 |
| COc1ncc(-c2ccc3ncc(Cl)c(=O)n3c2)cc1NS(=O)(=O)c1sccc1Cl [compound 150] | – | – | ≤ 0.05 | ≤ 0.05 | ≤ 0.001 | 0.001 to 0.01 | – | – | 93.5 | 82.3 |
| COc1ncc(-c2ccc3ncc(Cl)c(=O)n3c2)cc1NS(=O)(=O)c1sc(C)nc1C [compound 153] | – | – | ≤ 0.05 | ≤ 0.05 | ≤ 0.001 | 0.001 to 0.01 | – | – | 91.6 | 83.5 |
| CCOc1cnc2ccc(-c3cnc(OC)c(NS(=O)(=O)c4ccc(Cl)s4)c3)cn2c1=O [compound 174] | – | – | ≤ 0.05 | ≤ 0.05 | ≤ 0.001 | 0.05 to 0.1 | – | – | 92.5 | 78.4 |
